Our source for the EC50 values is publication PMC13270500, “Legacy 4(1H)‑Quinolone Scaffolds Activity against Acute and Chronic Toxoplasma gondii Infection” (ACS Infectious Diseases, 2026).

As a reminder, the EC50 is the concentration that produces a half-maximal response.

SMILES strings stand for the structures.

Experiment [1] has as its system T. gondii RH (type I) tachyzoites. The experiment can be described thus: In vitro tachyzoite growth dose response, RH-RFP (red fluorescence). It is filed as cell-based. The following applies: Toxoplasma gondii, RH-RFP type I wild-type, in vitro proliferation; read-out: EC50 against RH tachyzoites. The procedure: Experiments with T. gondii tachyzoites were carried out with parasites expressing a td-Tomato red fluorescent protein (RFP). , Parasites were purified by passing them through a 25-gauge needle, followed by filtration through a 5 μm filter. Human fibroblasts were cultured in 96-well black plates for 48 (hTERT) or 120 (HFF) hours before the addition of 4,000 fluorescent tachyzoites/well. […] Two technical replicates per concentration were used, and the experiment was repeated in three independent biological replicates. Fluorescence values were measured for up to 7 days, and both excitation (544 nm) and emission (590 nm) were read from the bottom of the plates in a BioTek Synergy H1 Hybrid plate reader. […] The EC50s were calculated using GraphPad Prism software version 10.

Experiment [2] deals with ME49 R4 ATQ^R tachyzoites. The experiment can be described thus: In vitro tachyzoite growth dose response, ATQ-resistant strain R4 (crystal violet). The settings on record: Toxoplasma gondii, read-out: EC50 against R4 ATQ^R strain. It is filed as cell-based.

On to `O=C1C(O)=C([C@H]2CC[C@H](c3ccc(Cl)cc3)CC2)C(=O)c2ccccc21` [ATQ, atovaquone], for which the EC50 in experiment [1] came out at 14.1 nM; in experiment [2], 1870 nM.
